# Test results reported in US20250263437A1, “POLYPEPTIDE FOR REPAIRING SKIN WOUND OR MUCOSAL INJURY, AND APPLICATION THEREOF” (Sichuan Gooddoctor Panxi Pharmaceutical Co., Ltd., priority 2021, published 2025).
# “Also recorded” adds a separate entry of the source. Where no end group is shown, it is not given here.
# Assays:
# HMEC-1 cells = test: Proliferation of HMEC-1 cells (CCK-8); type: cell-based, Human; settings: 0.05, 0.2 and 0.8 ug/mL; 48 h; 0% serum
# Procedure: Human microvascular endothelial cells (HMEC-1 cells) were cultured in 10% serum culture medium at 37° C. and 5% CO2, the medium was replaced every 1-2 d, and the cell concentration was controlled to be 4×10^6 cells/mL for passage. Cells were collected, prepared to […] with complete culture medium, inoculated into a 96-well cell culture plate, with 100 μL per well, i.e., 5000 cells/well, and cultured at 37° C. and 5% CO2 until the cells adhered to the wall. The polypeptide compound of the present invention was prepared to test concentrations (0.05 ug/mL, 0.2 ug/mL, and 0.8 ug/mL) with 0% serum culture medium as experimental groups, a positive drug (300 ng/ml) was prepared in the same way and added as a positive control, and an equal amount of 0% serum drug-free culture medium was added to the control group. They were added to 5 duplicate wells, and the resultants were incubated at 37° C. and 5% CO2 for 48 h. Detection of the proliferation of cells using CCK-8: the old culture medium was removed, and a serum-free medium containing 10% CCK-8 was added to each well. After incubation in an incubator for 2 h, the absorbance at 450 nm was measured by a microplate reader.
# [1] = system: chronic atrophic gastritis model in mice; test: Therapeutic effect on chronic atrophic gastritis model in mice (MNNG combined with ranitidine); type: in vivo; settings: 5 mg/kg daily by gavage, 2 weeks
# Procedure: Method: Chronic atrophic gastritis was induced by MNNG (N-methyl-N-nitro-N-nitrosoguanidine) combined with ranitidine. The mice were free to access to an aqueous solution containing MNNG ([…]), and at the same time, the mice were given ranitidine (8 mg/ml) aqueous solution at a dose of 150 mg/kg by gavage at a fixed time per day for 20 consecutive weeks. After 20 weeks of modeling, on the basis of drinking ordinary distilled water, the mice were given Compound 1 (5 mg/kg) daily by gavage.
# FGFR1 = FGFR1 (Homo sapiens, UniProt P11362); test: FGFR receptor binding assay: ultrafiltration/mass spectrometry affinity screening to FGFR1 protein target; settings: ratio of lower-layer to upper-layer compound MS signal intensity; the greater the ratio, the stronger the affinity
# Chain of FGFR1 (P11362 22-822, species assumed): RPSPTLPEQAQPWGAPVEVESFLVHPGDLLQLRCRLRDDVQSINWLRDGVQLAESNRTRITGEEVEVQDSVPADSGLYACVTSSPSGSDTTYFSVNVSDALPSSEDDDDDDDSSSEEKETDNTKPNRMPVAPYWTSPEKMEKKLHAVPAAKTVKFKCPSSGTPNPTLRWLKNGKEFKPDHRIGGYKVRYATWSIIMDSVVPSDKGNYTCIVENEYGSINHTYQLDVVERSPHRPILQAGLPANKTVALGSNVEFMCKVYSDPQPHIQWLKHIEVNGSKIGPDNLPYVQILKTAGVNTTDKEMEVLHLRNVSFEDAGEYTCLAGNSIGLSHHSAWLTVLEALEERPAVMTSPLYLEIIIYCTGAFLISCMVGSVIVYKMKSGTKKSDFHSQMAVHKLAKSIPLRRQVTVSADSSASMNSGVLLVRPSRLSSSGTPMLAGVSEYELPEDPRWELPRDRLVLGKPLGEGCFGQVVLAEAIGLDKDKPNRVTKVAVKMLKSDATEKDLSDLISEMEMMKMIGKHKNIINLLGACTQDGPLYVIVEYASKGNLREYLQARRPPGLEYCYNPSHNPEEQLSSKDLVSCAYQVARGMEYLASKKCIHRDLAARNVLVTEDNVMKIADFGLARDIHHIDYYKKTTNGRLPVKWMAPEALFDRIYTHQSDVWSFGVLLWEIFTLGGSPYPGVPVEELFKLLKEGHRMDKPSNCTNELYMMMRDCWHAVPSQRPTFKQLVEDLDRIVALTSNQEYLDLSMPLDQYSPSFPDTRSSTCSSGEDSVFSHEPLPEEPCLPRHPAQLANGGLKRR
# Procedure: The affinity of the polypeptide compound prepared by the present invention to FGFR1 was tested by using a control FGFR1 allosteric inhibitor (product number SSR128129E from Sigma) as a positive compound control.
# Screening for the affinity to FGFR1 was as follows: FGFR1 solutions with an appropriate concentration were taken, the positive compound SSR128129E (Sigma) at an appropriate concentration and sample solutions of the inventive polypeptide compounds, as freeze-dried powders, dissolved in protein buffers were then respectively added. After incubation at room temperature for 50 min, ultrafiltration and screening were carried out to obtain various treated solutions. An appropriate volume of acetonitrile was added to each treated solution to precipitate a protein, the solution was then centrifuged, and the supernatant was taken and analyzed by mass spectrometry.
# Affinity screening conditions: One-dimensional liquid-phase conditions were: chromatographic column; PolyLC chromatographic column, mobile phase A: KH2PO4, NaCl, pH 7.5, mobile phase B: acetonitrile, column temperature: 8° C., flow rate: 1 mL/min, and injection volume: appropriate; and two-dimensional liquid-phase conditions were: chromatographic column: BONUS RRHD, mobile phase A: 0.1% formic acid aqueous solution, mobile phase B: 0.1% formic acid in acetonitrile, column temperature: 60° C., flow rate: 0.3 mL/min, and injection volume: 40 uL. Gradient elution was used, i.e., 98% A (0-1 min), 98-10% A (1-6 min), 10% A (6-7.5 min), 10-98% A (7.5-8 min), and 98% A (8-9.5 min). Mass spectrometry conditions: Agilent 6530 Q-Tof, ESI ion source, voltage 3.5 KV, mass-to-charge ratio scanning range m/z=200-3000, acquisition mode: positive ion scanning, ion source temperature: 350° C., solvent removal temperature: 300° C., and nitrogen flow rate: 8 L/min.
sequence,measurement,setting,value
SMQASLEAEAKGKAE [Compound 1],effect on proliferation of HMEC-1 cells,HMEC-1 cells,significant proliferation promoting effects; also recorded: proliferation-promoting effect
same,repair / therapeutic effect on chronic atrophic gastritis,[1],could promote the repair of chronic atrophic gastritis in mice; also recorded: therapeutic effect
same,height of the mucosa in the gastric antrum,[1]; compared with the model group,substantially recovered to the normal state
same,number of parietal cells,[1]; compared with the model group,increased significantly
same,structure of the gastric gland,[1]; compared with the model group,recovered to normal
same,Cb/Ct range,FGFR1,1.0-3
VDAAVLEKLE [Compound 67],Cb/Ct range,FGFR1,1.0-3
AAVLDKLE [Compound 68],Cb/Ct range,FGFR1,1.0-3
